Assay results from US20090326633A1, “CONTROLLED RELEASE ENDOPROSTHETIC DEVICE” (BOEHRINGER INGELHEIM PHARMA GMBH & CO. KG, priority 2001, published 2009).

Test system: muscle cells
Test: Cell proliferation ELISA, BrdU incorporation into DNA (inhibition of DNA synthesis)
Assay type: cell-based
Conditions: stents loaded with dipyramidole
Text: Incorporation of BrdU instead of thymidine into the DNA, measurement with anti-BrdU-POD antibody (Cell proliferation ELISA, BrdU; obtained from Roche Diagnostics, Mannheim, Germany)
The following results have been obtained using this test with the stents loaded with dipyramidole according to the present invention: […]

`OCCN(CCO)c1nc(N2CCCCC2)c2nc(N(CCO)CCO)nc(N3CCCCC3)c2n1` [dipyridamole, 2,6-bis(diethanolamino)-4,8-dipiperidino-pyrimido[5,4-d]pyrimidine] was tested, and the IC50 (muscle cells stimulated with PDGF-BB) was 100 to 300 nM, the IC50 (muscle cells without stimulation) was 1000 to 3000 nM and the IC50 (with freshly prepared medium) was 4000 to 10000 nM.
